Measurements from patent US9981918B2, “Kynurenine-3-monooxygenase inhibitors, pharmaceutical compositions, and methods of use thereof” (CHDI Foundation, Inc., priority 2011, dated 2018).

Tested on: KMO
Assay: KMO inhibition: L-Kynurenine hydroxylation to 3-Hydroxy-Kynurenine monitored by LC/MS
Format: biochemical
Conditions: compound at 10 uM; footnote: some portion of activity of amides may be due to contribution of acid precursor
Procedure: A generalized procedure for monitoring L-Kynurenine (KYN) hydroxylation to form product 3-Hydroxy-Kynurenine (30H-KYN) by LC/MS is described below. Product is quantified by multiple reaction monitoring using MS.
A method of monitoring L-Kynurenine (KYN) hydroxylation to form product 3-Hydroxy-Kynurenine (30H-KYN) by LC/MS is described below. Product is quantified by multiple reaction monitoring.
• Compound: Stock concentrations: 10 mM in 100% DMSO • Enzyme: KMO enzyme prepared at Evotec via mitochondria isolation from CHO-GST HIS KMO cells • Substrate: L-Kynurenine (Sigma: Cat# K3750) • [stock concentration: 10 mM in 100 mM potassium phosphate buffer, pH 7.4]
A method of monitoring L-Kynurenine (KYN) hydroxylation to form 3-Hydroxy-Kynurenine (30H-KYN) by LC/MS is described. Product is quantified by multiple reaction monitoring (MRM method).

COC(C)c1ccc(-c2cc(C(=O)O)ncn2)cc1Cl (stereo not shown) [6-[3-chloro-4-(1-methoxyethyl)phenyl]pyrimidine-4-carboxylic acid]
% Inhibition at 10 uM*: 101%
